The subject of assay [1] is H2O2-damaged PC12 cell. The assay is described as follows: LDH activity of H2O2-damaged PC12 cell. It counts as cell-based. The following applies: pre-treated 6 hours, 0.5 mM H2O2 1 hour, supernatant. The method, then: (§1) The experiment of determination was carried out according to the Specification of LDH test kit provided by Nanjing Jiangcheng Bioengineering Institute.
(§2) LDH activity (U/L)=(ODU−ODC)/(ODS−ODB)×CS×N×1 000
(§3) Wherein, ODU represented the absorbance of the tested sample, ODC represented the absorbance of control sample, ODB represented the absorbance of blank, ODS represented the absorbance of standard solution, CS represented the standard concentration of 2 mmol/L, N represented the dilution multiple of sample before determination.
(§4) a. PC12 cells at exponential growth phase in good condition were washed with PBS twice, followed by addition of 0.25% trypsin digestive solution to perform digestion at 37° C. for about 1 min. This reaction was ended by addition of blood serum-contained culture medium, centrifuged and resuspended, then counted the cells to prepare a suspension with a cell density of 2×10^4−4×10^4 cells/ml.
(§5) b. The resulting cell suspension was inoculated into 96-well microplate with 180 μl in each well (n=3) and incubated in constant temperature CO2 incubator at 37° C. for 24 hours.
(§6) c. Grouping and treatments: there were 5 groups: blank control group (PBS), solvent control group (DMSO or ethyl acetate), model group (H2O2), positive control group (Edaravone) and drug treatment group.
(§7) Model group: 0.5 mM hydrogen peroxide (H2O2) was used to treat for 1 hour.
(§8) Positive control group: Edaravone (2 μg/ml ), used as a positive drug, was added to cell and pre-treated for 6 hours, into which 0.5 mM hydrogen peroxide was added to damage for 1 hour and replaced with freshly-prepared DMEM+10%FBS culture medium.
(§9) Drug treatment group: after the cell was inoculated into culture microplate, different tested drugs at different concentration were added firstly and pre-treated for 6 hours with 20 μl per well, into which 0.5 mM H2O2 was added to damage for 1 hour, and then replaced with freshly-prepared DMEM+10%FBS culture medium.
d. The supernatant was collected, 20 μl per well, for determination of LDH activity.

For assay [2], the system named is PC12 cell of oxygen-glucose deprivation. The assay is described as follows: Cell survival rate of PC12 cell of oxygen-glucose deprivation (MTT method). In kind it is cell-based. The following applies: pre-treated 6 hours. The protocol: (§10) a. MTT was added into 96-well microplate with 20 μl in each well, and reacted for 4 hours in incubator.
(§11) b. The supernatant was discarded, followed by addition of 150 μl DMSO in each well and shaken on flat shaking-table for 10 min.
(§12) c. Absorbance of each well was measured by ELISA reader at wavelength of 570 nm to calculate cell survival rate.
(§13) Cell survival rate %=(OD value of drug administration group/OD value of negative control group)×100%
as §4, §5
c. Grouping and treatments: there were 3 groups: blank control group (normoxia+0.1% DMS0), model group (OGD+0.1% DMSO, oxygen-glucose deprivation) and positive control group (Edaravone).
Model group: the cell in culture microplate was cultured with glucose-free DMEM medium, which was placed in a hypoxic chamber, started to record time for 0.5 hour when O2% was less than 2.6, and then transferred to a routine incubator. The determination was carried out after a period of time of incubation.
Positive control group: Edaravone (2 μg/ml) was used as a positive drug. Drug was added and pre-treated for 6 hours, and then replaced with glucose-free medium, 180 μl per well. The drug was added again, placed in a hypoxic chamber, started to record time for 0.5 hour when O2% was less than 2.6, and then transferred to a routine incubator. The determination was carried out after a period of time of incubation.
(§14) d. The cell activity was determined by MTT method.
(§15) c. Grouping and treatments: there were 4 groups: blank control group (normoxia+0.1% DMSO), model group (OGD+DMSO, oxygen-glucose deprivation), positive control group (Edaravone) and the drug treatment group.
(§16) Model group: the culture medium for the cells in microplate was changed to glucose-free DMEM, placed in a hypoxic chamber, and started to record time for 0.5 hour when O2% was less than 2.6, and then transferred to a routine incubator to culture overnight.
(§17) Positive control group: Edaravone (2 μg/ml ) was used as a positive drug. Drug was added and pre-treated for 6 hours, and then the culture medium was replaced with glucose-free DMEM medium, 180 μl per well. The drug was added again, placed in a hypoxic chamber, started to record time for 0.5 hour when 02% was less than 2.6, and then transferred to a routine incubator to culture overnight.
(§18) Drug treatment group: the drug at different concentrations was added and pre-treated for 6 hours, the culture medium was changed to glucose-free DMEM medium, 180 μl per well. The drug was added again, placed in a hypoxic chamber, started to record time for 0.5 hour when O2% was less than 2.6, and then transferred to a routine incubator to culture overnight.
e. The activity of cell was determined by MTT method.
(In general: Formazan colour is commonly taken as a measure of viable cells.)

Assay [3] has as its system H2O2-damaged PC12 cell. The assay is described as follows: Cell survival rate of H2O2-damaged PC12 cell (MTT method). The note with it: pre-treated 6 hours, 0.5 mM H2O2 1 hour. It counts as cell-based. The method, then: as §10, §11, §12, §13
a. PC12 cells at, exponential growth phase in good condition were washed with PBS twice, followed by addition of 0.25% trypsin digestive solution to perform digestion at 37° C. for about 1 min. This reaction was ended by addition of blood serum-contained culture medium, centrifuged and resuspended, then counted the cells to prepare a suspension with a cell density of 2×10^4−4×10^4 cells/ml.
as §5
c. Grouping and treatments: there were 4 groups: blank control group (PBS), solvent control group (DMSO), model group (H2O2) and positive control group (Edaravone).
Positive control group: Edaravone (2 μg/ml) is added as a positive drug and then pre-treated for 6 hours, into which 0.5 mM hydrogen peroxide was added to damage for 1 hour and replaced with freshly-prepared DMEM+10%FBS culture medium, 200 μl per well.
as §14, §4, §6, §7, §8, §9
e. The activity of cell in cell microplate was determined by MTT method.

The test system of assay [4] is PC12 cell of oxygen-glucose deprivation (OGD). The assay is described as follows: LDH activity of PC12 cell of oxygen-glucose deprivation (OGD). In kind it is cell-based. The following applies: pre-treated 6 hours, OGD 0.5 hour, cultured overnight, supernatant. The protocol: as §1, §2, §3, §4, §5, §15, §16, §17, §18
d. Resulting supernatant was collected the next day with 20 μl per well, which was used for determination of LDH activity.

A short description of assay [5]: DPPH free-radical scavenging reaction. In kind it is biochemical. The note with it: for DPPH free-radical scavenging rate: 20 min, 25° C., 517 nm. The protocol: In this study, 1,1-diphenyl-2-picryl-hydrazyl (DPPH) free-radical scavenging reaction model has been used to observe the free-radical scavenging activity of the salvianolic acid L. The total reaction volume was 2 ml. 1 ml of the sample solutions at different concentrations in 80% methanol (v/v) were added into 100 μM of DPPH methanol solution, mixed uniformly to allow the solution to react for 20 min at 25° C. in the dark. Absorbance of the reaction solution was measured at 517 nm. In this study, vitamin C was regarded as a positive control. Free-radical scavenging rate was calculated in accordance with the following equation: Free-radical scavenging rate (%)=[1−Asample/Acontrol)/Acontrol]×100% Wherein, the Asample means the absorbance of the tested samples, and Acontrol means the absorbance of blank control.
Background: Loss of DPPH colour is used to gauge radical scavenging.

The nature of assay [6]: Determination of reducing capacity (potassium ferricyanide / ferric chloride, absorbance at 700 nm). The note with it: FIG. 10; in words, compared with vitamin C. In kind it is biochemical. The method, then: 0.5 ml of 200 mM phosphate buffer (pH6.8) containing different concentrations of the salvianolic acid L and 1.0% potassium ferricyanide solution were sucked respectively and cooled on an ice bath after being heated on a water bath (50° C.) for 20 min. 0.5 ml of trichloroacetic acid solution (10%) was added and centrifuged at […] for 10 min. 1.0 ml of the resulting supernatant was taken, into which 1.0 ml of distilled water and 0.2 ml of ferric chloride solution (0.1%) were added, stood still for 10 min and the absorbance was measured at 700 nm. Meanwhile, the blank experiment was carried out. Vitamin C is a strongly reducing substance, acting as positive control in this study. Reducing capacity of the sample is represented by subtracting the absorbance of the blank control from the absorbance of the tested sample. Thus, it means the higher absorbance, the stronger reducing capacity.

[7] abbreviates: final concentration 0.02 μg/ml, OGD 0.5 hour, cultured overnight.
Where [8] appears, read: final concentration 0.2 μg/ml, OGD 0.5 hour, cultured overnight.
The mark [9] stands for this setting: final concentration 2 μg/ml, OGD 0.5 hour, cultured overnight.

We go through three molecules from patent US20120041062A1, “COMPOUND OF SALVIANOLIC ACID L, PREPARATION METHOD AND USE THEREOF” (Tianjin Tasly Pharmaceutical Co., Ltd., priority 2009, published 2012).

As to `CC1=NN(c2ccccc2)C(=O)C1` [Edaravone], the “LDH activity (U/L)” value in the assay with H2O2-damaged PC12 cell [1] (final concentration 0.02 μg/ml) amounted to 532.44 ± 11.55 U/L; in the assay with H2O2-damaged PC12 cell [1] (final concentration 0.2 μg/ml), 568.23 ± 11.55 U/L; with H2O2-damaged PC12 cell [1] (final concentration 2 μg/ml) it was 523.49 ± 5.17 U/L; in assay [4] (final concentration 0.02 μg/ml) it was 40.27 ± 5.17 U/L; in assay [4] (final concentration 0.2 μg/ml) it was 22.37 ± 5.17 U/L; in assay [4] (final concentration 2 μg/ml) it was 31.32 ± 5.17 U/L. Moreover, the “Survival rate (%)” value in assay [2] (establishment of oxygen-glucose deprivation model, 2 μg/ml) turned out to be 48.50 ± 1.81 %; in assay [2] (setting [7]) it was 44.75 ± 1.02 %; in assay [2] (setting [8]), 36.37 ± 2.52 %; in assay [2] (setting [9]), 39.99 ± 0.55 %; in the assay on H2O2-damaged PC12 cell [3] (establishment of hydrogen peroxide-damaged model, 2 μg/ml) it was 53.54 ± 3.66 %; in the assay with H2O2-damaged PC12 cell [3] (final concentration 0.02 μg/ml), 47.6 ± 2 %. Also, the “Survival rate (%)” value worked out at 44.2 ± 6.11% with H2O2-damaged PC12 cell [3] (final concentration 0.2 μg/ml) and 58.18 ± 2.64 % with H2O2-damaged PC12 cell [3] (final concentration 2 μg/ml).

As for `O=C1O[C@H]([C@@H](O)CO)C(O)=C1O` [Vitamin C], the “DPPH free-radical scavenging rate” value was found to be 3.42 ± 0.42% in assay [5] (sample 0.314 μg/ml); 7.06 ± 1.88% in assay [5] (sample 0.625 μg/ml); 13.82 ± 1.83% in assay [5] (sample 1.25 μg/ml); 29.39 ± 5.92% in assay [5] (sample 2.5 μg/ml); 55.34 ± 7.21% in assay [5] (sample 5 μg/ml).

For `O=C(/C=C/c1ccc(O)c(O)c1/C(=C/c1ccc(O)c(O)c1)C(=O)O)OC(Cc1ccc(O)c(O)c1)C(=O)O` (centres unmarked) [salvianolic acid L], in assay [5] (compared with vitamin C, Table 3 and FIG. 9), the “DPPH free-radical scavenging rate (in words)” value is “much higher free-radical scavenging rate than that of the vitamin C”. Further, the “DPPH free-radical scavenging rate” value in assay [5] (sample 0.314 μg/ml) amounted to 5.41 ± 0.74%; in assay [5] (sample 0.625 μg/ml), 12.95 ± 2.42%; in assay [5] (sample 1.25 μg/ml) it was 25.21 ± 1.82%; in assay [5] (sample 2.5 μg/ml), 44.19 ± 3.70%; in assay [5] (sample 5 μg/ml), 83.17 ± 4.12%. Moreover, the “LDH activity (U/L)” value with H2O2-damaged PC12 cell [1] (final concentration 0.02 μg/ml) worked out at 550.336 ± 25.83 U/L; in the assay with H2O2-damaged PC12 cell [1] (final concentration 0.2 μg/ml), 474.27 ± 71.96 U/L; in the assay with H2O2-damaged PC12 cell [1] (final concentration 2 μg/ml), 487.70 ± 72.51 U/L; in assay [4] (final concentration 0.02 μg/ml), 53.69 ± 29.23 U/L; in assay [4] (final concentration 0.2 μg/ml) it was 31.32 ± 11.55 U/L; in assay [4] (final concentration 2 μg/ml), 40.27 ± 5.17 U/L. Moreover, the “Survival rate (%)” value in assay [2] (setting [7]) is 47.74 ± 1.72 %; in assay [2] (setting [8]) it was 36.68 ± 2.72 %; in assay [2] (setting [9]) it was 35.96 ± 1.44%; in the assay on H2O2-damaged PC12 cell [3] (final concentration 0.02 μg/ml), 47.2 ± 0.8 %; with H2O2-damaged PC12 cell [3] (final concentration 0.2 μg/ml), 44.89 ± 0.48%; in the assay with H2O2-damaged PC12 cell [3] (final concentration 2 μg/ml) it was 48.34 ± 0.25%. Moreover, the “reducing capacity (absorbance at 700 nm minus blank)” value in assay [6] is “much stronger than that of vitamin C”.
